From US9029325B2, “Amylin analogues and pharmaceutical compositions thereof” (Novo Nordisk A/S, priority 2011, dated 2015)
Starred links: 1 amine or outer side, 2 acyl side, 3 side chain; linkers in the order of their positions; H or OH if unused. Positions of bridges follow the written chain, without caps; N, C: chain ends. Residues, ends and D or L forms follow the SMILES beside them. *: point of attachment. C20 diacid = O=C(O)CCCCCCCCCCCCCCCCCCC(=O)*; C18 diacid = O=C(O)CCCCCCCCCCCCCCCCC(=O)*; γGlu = O=C(O)[C@H](CCC(=O)[*:2])N[*:1]

Assay: Assay (I) efficacy testing on appetite (food intake), ad libitum fed rat model
Type: in vivo, Sprague Dawley (SD) rats
Procedure, shortened: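 Ad libitum fed SD rats (200-250 g) on a reversed light cycle, housed individually, received a single 0.01-3 mg/kg dose ip, po or sc just before lights-off. Individual food intake recorded hourly for 7 h, then at 24 h and sometimes 48 h, versus vehicle; Grubbs outliers excluded.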

SMILES | Food intake reduction 0-24 h 3 nmol/kg (%) (0-24 h) | Food intake reduction 24-48 h 3 nmol/kg (%) (24-48 h) | Food intake reduction 0-24 h 30 nmol/kg (%) (30 nmol/kg, 0-24 h) | Food intake reduction 24-48 h 30 nmol/kg (%) (30 nmol/kg, 24-48 h)
CC[C@H](C)[C@H](NC(=O)[C@@H]1CCCN1C(=O)CNC(=O)[C@H](Cc1ccccc1)NC(=O)[C@H](CC(N)=O)NC(=O)[C@H](CC(N)=O)NC(=O)[C@H](CO)NC(=O)[C@H](CO)NC(=O)[C@H](Cc1c[nH]cn1)NC(=O)[C@H](Cc1c[nH]cn1)NC(=O)[C@H](CC(C)C)NC(=O)[C@H](Cc1ccccc1)NC(=O)[C@H](CCC(=O)O)NC(=O)[C@H](C)NC(=O)[C@H](CC(C)C)NC(=O)[C@H](CCCNC(=N)N)NC(=O)[C@H](CCC(N)=O)NC(=O)[C@@H](NC(=O)[C@H](C)NC(=O)[C@@H]1CSSC[C@H](NC(=O)[C@H](CCCCN)NC(=O)CC[C@H](NC(=O)CCCCCCCCCCCCCCCCC(=O)O)C(=O)O)C(=O)N[C@@H](CC(N)=O)C(=O)N[C@@H]([C@@H](C)O)C(=O)N[C@@H](C)C(=O)N[C@@H]([C@@H](C)O)C(=O)N1)[C@@H](C)O)C(=O)N[C@@H](CC(C)C)C(=O)N1CCC[C@H]1C(=O)N1CCC[C@H]1C(=O)N[C@H](C(=O)N[C@@H](CC(N)=O)C(=O)N[C@H](C(=O)NCC(=O)N[C@@H](CO)C(=O)N[C@@H](Cc1c[nH]cn1)C(=O)N[C@H](C(=O)N[C@@H](Cc1ccc(O)cc1)C(N)=O)[C@@H](C)O)C(C)C)[C@@H](C)O [Example 59, N-alpha-[(S)-4-Carboxy-4-(17-carboxyheptadecanoylamino)butyryl]-[Glu14,His17,His 35]-pramlintide] ({C18 diacid-γGlu}-KCNTATCATQRLAEFLHHSSNNFGPILPPTNVGSHTY-NH2; disulfide 2-7 (inferred); C-terminus assumed) | 59 | 27 | – | –
CC[C@H](C)[C@H](NC(=O)[C@@H]1CCCN1C(=O)CNC(=O)[C@H](Cc1ccccc1)NC(=O)[C@H](CC(N)=O)NC(=O)[C@H](CC(N)=O)NC(=O)[C@H](CO)NC(=O)[C@H](CO)NC(=O)[C@H](Cc1c[nH]cn1)NC(=O)[C@H](Cc1c[nH]cn1)NC(=O)[C@H](CC(C)C)NC(=O)[C@H](Cc1ccccc1)NC(=O)[C@H](CCC(=O)O)NC(=O)[C@H](C)NC(=O)[C@H](CC(C)C)NC(=O)[C@H](CCCNC(=N)N)NC(=O)[C@H](CCC(N)=O)NC(=O)[C@@H](NC(=O)[C@H](C)NC(=O)[C@@H]1CSSC[C@H](NC(=O)[C@H](Cc2c[nH]cn2)NC(=O)[C@H](Cc2c[nH]cn2)NC(=O)[C@H](Cc2c[nH]cn2)NC(=O)CC[C@H](NC(=O)CCCCCCCCCCCCCCCCCCC(=O)O)C(=O)O)C(=O)N[C@@H](CC(N)=O)C(=O)N[C@@H]([C@@H](C)O)C(=O)N[C@@H](C)C(=O)N[C@@H]([C@@H](C)O)C(=O)N1)[C@@H](C)O)C(=O)N[C@@H](CC(C)C)C(=O)N1CCC[C@H]1C(=O)N1CCC[C@H]1C(=O)N[C@H](C(=O)N[C@@H](CC(N)=O)C(=O)N[C@H](C(=O)NCC(=O)N[C@@H](CO)C(=O)N[C@@H](CC(N)=O)C(=O)N[C@H](C(=O)N[C@@H](Cc1ccc(O)cc1)C(N)=O)[C@@H](C)O)C(C)C)[C@@H](C)O [Example 11, N-alpha-[(S)-4-Carboxy-4-(19-carboxynonadecanoylamino)butyryl]-His-His-[His1,Glu14,His17]-pramlintide] ({C20 diacid-γGlu}-HHHCNTATCATQRLAEFLHHSSNNFGPILPPTNVGSNTY-NH2; disulfide 4-9) | – | – | 87 | 92
CC[C@H](C)[C@H](NC(=O)[C@@H]1CCCN1C(=O)CNC(=O)[C@H](Cc1ccccc1)NC(=O)[C@H](CC(N)=O)NC(=O)[C@H](CC(N)=O)NC(=O)[C@H](CO)NC(=O)[C@H](CO)NC(=O)[C@H](Cc1c[nH]cn1)NC(=O)[C@H](Cc1c[nH]cn1)NC(=O)[C@H](CC(C)C)NC(=O)[C@H](Cc1ccccc1)NC(=O)[C@H](CCC(=O)O)NC(=O)[C@H](C)NC(=O)[C@H](CC(C)C)NC(=O)[C@H](CCCNC(=N)N)NC(=O)[C@H](CCC(N)=O)NC(=O)[C@@H](NC(=O)[C@H](C)NC(=O)[C@@H]1CSSC[C@H](NC(=O)[C@H](CCCCN)NC(=O)CC[C@H](NC(=O)CCCCCCCCCCCCCCCCCCC(=O)O)C(=O)O)C(=O)N[C@@H](CC(N)=O)C(=O)N[C@@H]([C@@H](C)O)C(=O)N[C@@H](C)C(=O)N[C@@H]([C@@H](C)O)C(=O)N1)[C@@H](C)O)C(=O)N[C@@H](CC(C)C)C(=O)N1CCC[C@H]1C(=O)N1CCC[C@H]1C(=O)N[C@H](C(=O)N[C@@H](CC(N)=O)C(=O)N[C@H](C(=O)NCC(=O)N[C@@H](CO)C(=O)N[C@@H](CC(N)=O)C(=O)N[C@H](C(=O)N[C@@H](Cc1ccc(O)cc1)C(N)=O)[C@@H](C)O)C(C)C)[C@@H](C)O [Example 27, N-alpha-[(S)-4-Carboxy-4-(19-carboxynonadecanoylamino)butyryl]-[Glu14,His17]-pramlintide] ({C20 diacid-γGlu}-KCNTATCATQRLAEFLHHSSNNFGPILPPTNVGSNTY-NH2; disulfide 2-7) | 56 | 53 | – | –
CC[C@H](C)[C@H](NC(=O)[C@@H]1CCCN1C(=O)CNC(=O)[C@H](Cc1ccccc1)NC(=O)[C@H](CC(N)=O)NC(=O)[C@H](CC(N)=O)NC(=O)[C@H](CO)NC(=O)[C@H](CO)NC(=O)[C@H](Cc1c[nH]cn1)NC(=O)[C@H](Cc1c[nH]cn1)NC(=O)[C@H](CC(C)C)NC(=O)[C@H](Cc1ccccc1)NC(=O)[C@H](CCC(=O)O)NC(=O)[C@H](C)NC(=O)[C@H](CC(C)C)NC(=O)[C@H](CCCNC(=N)N)NC(=O)[C@H](CCC(N)=O)NC(=O)[C@@H](NC(=O)[C@H](C)NC(=O)[C@@H]1CSSC[C@H](NC(=O)[C@H](CCC(=O)O)NC(=O)CC[C@H](NC(=O)CCCCCCCCCCCCCCCCCCC(=O)O)C(=O)O)C(=O)N[C@@H](CC(N)=O)C(=O)N[C@@H]([C@@H](C)O)C(=O)N[C@@H](C)C(=O)N[C@@H]([C@@H](C)O)C(=O)N1)[C@@H](C)O)C(=O)N[C@@H](CC(C)C)C(=O)N1CCC[C@H]1C(=O)N1CCC[C@H]1C(=O)N[C@H](C(=O)N[C@@H](CC(N)=O)C(=O)N[C@H](C(=O)NCC(=O)N[C@@H](CO)C(=O)N[C@@H](CC(N)=O)C(=O)N[C@H](C(=O)N[C@@H](Cc1ccc(O)cc1)C(N)=O)[C@@H](C)O)C(C)C)[C@@H](C)O [compound 29] ({C20 diacid-γGlu}-ECNTATCATQRLAEFLHHSSNNFGPILPPTNVGSNTY-NH2; disulfide 2-7) | 15 | 5 | – | –
CC[C@H](C)[C@H](NC(=O)[C@@H]1CCCN1C(=O)CNC(=O)[C@H](Cc1ccccc1)NC(=O)[C@H](CC(N)=O)NC(=O)[C@H](CC(N)=O)NC(=O)[C@H](CO)NC(=O)[C@H](CO)NC(=O)[C@H](Cc1c[nH]cn1)NC(=O)[C@H](CCCNC(=N)N)NC(=O)[C@H](CC(C)C)NC(=O)[C@H](Cc1ccccc1)NC(=O)[C@H](CCC(=O)O)NC(=O)[C@H](C)NC(=O)[C@H](CC(C)C)NC(=O)[C@H](CCCNC(=N)N)NC(=O)[C@H](CCC(N)=O)NC(=O)[C@@H](NC(=O)[C@H](C)NC(=O)[C@@H]1CSSC[C@H](NC(=O)[C@H](CCCCN)NC(=O)[C@H](Cc2c[nH]cn2)NC(=O)CC[C@H](NC(=O)CCCCCCCCCCCCCCCCC(=O)O)C(=O)O)C(=O)N[C@@H](CC(N)=O)C(=O)N[C@@H]([C@@H](C)O)C(=O)N[C@@H](C)C(=O)N[C@@H]([C@@H](C)O)C(=O)N1)[C@@H](C)O)C(=O)N[C@@H](CC(C)C)C(=O)N1CCC[C@H]1C(=O)N1CCC[C@H]1C(=O)N[C@H](C(=O)N[C@@H](CC(N)=O)C(=O)N[C@H](C(=O)NCC(=O)N[C@@H](CO)C(=O)N[C@@H](Cc1c[nH]cn1)C(=O)N[C@H](C(=O)N[C@@H](Cc1ccc(O)cc1)C(N)=O)[C@@H](C)O)C(C)C)[C@@H](C)O [compound 71] ({C18 diacid-γGlu}-HKCNTATCATQRLAEFLRHSSNNFGPILPPTNVGSHTY-NH2; disulfide 3-8 (inferred); C-terminus assumed) | 10 | 0 | – | –
CC[C@H](C)[C@H](NC(=O)[C@H](CCC(=O)O)NC(=O)CNC(=O)[C@H](Cc1ccccc1)NC(=O)[C@H](CC(N)=O)NC(=O)[C@H](CC(N)=O)NC(=O)[C@H](CO)NC(=O)[C@H](CO)NC(=O)[C@H](CCCNC(=N)N)NC(=O)[C@H](Cc1c[nH]cn1)NC(=O)[C@H](CC(C)C)NC(=O)[C@H](Cc1ccccc1)NC(=O)[C@H](CCC(=O)O)NC(=O)[C@H](C)NC(=O)[C@H](CC(C)C)NC(=O)[C@H](CCCNC(=N)N)NC(=O)[C@H](CCC(N)=O)NC(=O)[C@@H](NC(=O)[C@H](C)NC(=O)[C@@H]1CSSC[C@H](NC(=O)[C@H](Cc2c[nH]cn2)NC(=O)CC[C@H](NC(=O)CCCCCCCCCCCCCCCCCCC(=O)O)C(=O)O)C(=O)N[C@@H](CC(N)=O)C(=O)N[C@@H]([C@@H](C)O)C(=O)N[C@@H](C)C(=O)N[C@@H]([C@@H](C)O)C(=O)N1)[C@@H](C)O)C(=O)N[C@@H](CC(C)C)C(=O)N[C@@H](CO)C(=O)N[C@@H](CCCNC(=N)N)C(=O)N[C@H](C(=O)N[C@@H](CC(N)=O)C(=O)N[C@H](C(=O)NCC(=O)N[C@@H](CO)C(=O)N[C@@H](CC(N)=O)C(=O)N[C@H](C(=O)N[C@@H](Cc1ccc(O)cc1)C(N)=O)[C@@H](C)O)C(C)C)[C@@H](C)O [compound 7] ({C20 diacid-γGlu}-HCNTATCATQRLAEFLHRSSNNFGEILSRTNVGSNTY-NH2; disulfide 2-7 (inferred); C-terminus assumed) | 53 | 46 | – | –
